Key:
IL-6 = experiment: Mouse IL6 quantification assay, LPS-stimulated RAW 264.7 macrophages; assay type: cell-based; conditions: for inhibition at 30 µM: RAW264.7, 30 μM, LPS-stimulated RAW 264.7 macrophages; for inhibition at 10 µM: RAW264.7, 10 μM, LPS (100 ng/ml) added concurrently, 5 hours, RAW 264.7
Description: (§1) Cell lines: Abelson murine leukemia virus transformed macrophage cell line RAW 264.7 was purchased from ATCC and grown in complete DMEM-High Glucose medium supplemented with penicillin (100 U/mL), streptomycin (100 μg/mL), and 10% heat-inactivated FBS at 37° C. in a humidified incubator with 5% CO2.
(§2) Method: Cells were plated at 25000-40000 cells/well density in a 96-well plate. After a 3-hour incubation, macrophages were starved with DMEM plus 0.5% FBS overnight. The next day the small molecules to be tested were added to the cells in the final concentration of 30 μM (with 0.3% DMSO) 3 hours prior to LPS stimulation (100 ng/ml). After LPS stimulation cells were incubated at 37° C. for 16 h. Alternatively, compounds were also tested at 10 μM and LPS (100 ng/ml) was added concurrently and incubated 5 hours at 37° C. At the end of the incubation periods, culture medium was collected and production of LPS-induced TNF-α and IL-6 cytokine was measured using ELISA detection kits.
(§3) Sandwich ELISA: The ELISA Immunoassays Quantikine Mouse TNF-alpha (catalog number MTA00B) and IL6 (catalog number M6000B) were purchased from R&D Systems Inc., Minneapolis, MN. These 4.5 hours solid phase ELISAs were used to measure mouse TNF-α or IL-6 levels in macrophages culture supernatants. Assays were executed according to the manufacturer specifications.

TNF-α = experiment: Mouse TNF alpha quantification assay, LPS-stimulated RAW 264.7 macrophages; assay type: cell-based; conditions: for inhibition at 30 µM: RAW264.7, 30 μM, LPS-stimulated RAW 264.7 macrophages; for inhibition at 10 µM: RAW264.7, 10 μM, LPS (100 ng/ml) added concurrently, 5 hours, RAW 264.7, read-out: TNFα % Inhibition
Description: as §1, §2, §3

Row | SMILES | inhibition at 30 µM (IL-6) [%] | inhibition at 30 µM (TNF-α) [%] | inhibition at 10 µM (IL-6) [%] | inhibition at 10 µM (TNF-α) [%]
1 | COC1CCN(c2nc(-c3nccn3C)nc3sc(Br)c(-c4ccccc4)c23)C1 (stereo not drawn) [drawing 716] | 51 to 75 | 26 to 50 |  | 
2 | COc1ccc(-c2c(-c3cccc(OC)c3F)sc3nc(-c4nccn4C)nc(N4CCC(OC)C4)c23)cc1 (stereo not drawn) [drawing 717] | 76 to 100 | 76 to 100 |  | 
3 | COCC1CN(c2nc(-c3nccn3C)nc3sc(-c4cccc(OC)c4F)c(-c4ccc(OC)cc4)c23)C1 [drawing 718] | 76 to 100 | 76 to 100 |  | 
4 | COc1cccc(-c2sc3nc(-c4nccn4C)nc(N4CCC(OC)C4)c3c2-c2ccccc2)c1F (stereo not drawn) [drawing 719] | 76 to 100 | 76 to 100 |  | 
5 | COc1c(O)nc(-c2ccccn2)nc1Oc1cnn(C)c1 [drawing 720] | 26 to 50 | 0 |  | 
6 | COc1c(O)nc(-c2ccccn2)nc1Oc1ccc2ncccc2c1 [drawing 721] | 76 to 100 | 1 to 25 |  | 
7 | COc1c(O)nc(-c2ccccn2)nc1Oc1cccnc1 [drawing 722] | 51 to 75 | 0 |  | 
8 | COc1cccc(Oc2nc(-c3ccccn3)nc(O)c2OC)c1 [drawing 723] | 76 to 100 | 26 to 50 |  | 
9 | COc1ccc(Oc2nc(-c3ccccn3)nc(O)c2OC)cc1 [drawing 724] | 76 to 100 | 1 to 25 |  | 
10 | COCCc1ccc(Oc2nc(-c3ccccn3)nc(O)c2OC)cc1 [drawing 725] | 76 to 100 | 1 to 25 |  | 
11 | COc1c(O)nc(-c2ccccn2)nc1Oc1ccccc1 [drawing 726] | 76 to 100 | 1 to 25 |  | 
12 | O=C(c1nc(-c2ccccn2)nc(O)c1O)N1CCOCC1 [drawing 728] | 0 | 1 to 25 |  | 
13 | CN(Cc1ccccc1)C(=O)c1nc(-c2ccccn2)nc(O)c1O [drawing 729] | 1 to 25 | 0 |  | 
14 | O=C(NCc1ccccc1)c1nc(-c2ccccn2)nc(O)c1O [drawing 730] | 76 to 100 | 76 to 100 |  | 
15 | O=C(c1nc(-c2ccccn2)nc(O)c1O)N1CCCC1 [drawing 731] | 0 | 1 to 25 |  | 
16 | O=C(NC1CCCC1)c1nc(-c2ccccn2)nc(O)c1O [drawing 732] | 76 to 100 | 26 to 50 |  | 
17 | CC(C)CN(C)C(=O)c1nc(-c2ccccn2)nc(O)c1O [drawing 733] | 0 | 0 |  | 
18 | CC(C)CNC(=O)c1nc(-c2ccccn2)nc(O)c1O [drawing 734] | 76 to 100 | 26 to 50 |  | 
19 | COCCN(C)C(=O)c1nc(-c2ccccn2)nc(O)c1O [drawing 735] | 0 | 1 to 25 |  | 

Row | SMILES | inhibition at 30 µM (IL-6) [%] | inhibition at 30 µM (TNF-α) [%] | inhibition at 10 µM (IL-6) [%] | inhibition at 10 µM (TNF-α) [%]
20 | O=C(NC1CCC1)c1nc(-c2ccccn2)nc(O)c1O [drawing 736] | 76 to 100 | 1 to 25 |  | 
21 | CC(C)NC(=O)c1nc(-c2nccn2C)nc(O)c1O [drawing 737] | 0 | 1 to 25 |  | 
22 | CCN(CC)C(=O)c1nc(-c2nccn2C)nc(O)c1O [drawing 738] | 0 | 1 to 25 |  | 
23 | Cn1ccnc1-c1nc(O)c(O)c(C(=O)N2CCCC2)n1 [drawing 739] | 0 | 1 to 25 |  | 
24 | Cn1ccnc1-c1nc(O)c(O)c(C(=O)NC2CCCC2)n1 [drawing 740] | 0 | 1 to 25 |  | 
25 | Cn1ccnc1-c1nc(O)c(O)c(C(=O)N2CCCCC2)n1 [drawing 741] | 0 | 1 to 25 |  | 
26 | Cn1ccnc1-c1nc(O)c(O)c(C(=O)NC2CCC2)n1 [drawing 742] | 0 | 1 to 25 |  | 
27 | COC(=O)c1nc(-c2nccn2C)nc(O)c1O [drawing 743] | 0 | 0 |  | 
28 | COc1c(O)nc(-c2ccccn2)nc1Oc1ccc(C(=O)N(C)C)cc1 [drawing 744] |  |  | 1 to 25 | 1 to 25
29 | COc1c(O)nc(-c2ccccn2)nc1Nc1ccccc1 [drawing 745] |  |  | 76 to 100 | 1 to 25
30 | CCn1cc(Nc2nc(-c3ccccn3)nc(O)c2OC)cn1 [drawing 746] |  |  | 76 to 100 | 1 to 25
31 | CCOc1cccc(Nc2nc(-c3ccccn3)nc(O)c2OC)c1 [drawing 747] |  |  | 51 to 75 | 1 to 25
32 | COc1cccc(-c2sc3nc(-c4nccn4C)nc(NC4CCC(OC)C4)c3c2-c2ccccc2)c1F (stereo not drawn) [drawing 748] |  |  | 76 to 100 | 76 to 100
33 | COc1cccc(-c2sc3nc(-c4nccn4C)nc(N[C@@H]4CC[C@H](OC)C4)c3c2-c2ccccc2)c1F [drawing 749] |  |  | 26 to 50 | 1 to 25
34 | COC1CCC(Nc2nc(-c3nccn3C)nc3sc(-c4cccc(O)c4F)c(-c4ccccc4)c23)C1 (stereo not drawn) [drawing 750] |  |  | 0 | 0
35 | COc1c(F)cccc1-c1sc2nc(-c3nccn3C)nc(NC3CCC(OC)C3)c2c1-c1ccccc1 (stereo not drawn) [drawing 751] |  |  | 1 to 25 | 0
36 | COc1c(F)cccc1-c1sc2nc(-c3nccn3C)nc(N[C@@H]3CC[C@H](OC)C3)c2c1-c1ccccc1 [drawing 752] |  |  | 0 | 0
37 | COC1CCC(Nc2nc(-c3nccn3C)nc3sc(-c4cccc5[nH]ncc45)c(-c4ccccc4)c23)C1 (stereo not drawn) [drawing 753] |  |  | 76 to 100 | 51 to 75
38 | CO[C@H]1CC[C@@H](Nc2nc(-c3nccn3C)nc3sc(-c4cccc5[nH]ncc45)c(-c4ccccc4)c23)C1 [drawing 754] |  |  | 76 to 100 | 76 to 100

Row | SMILES | inhibition at 30 µM (IL-6) [%] | inhibition at 30 µM (TNF-α) [%] | inhibition at 10 µM (IL-6) [%] | inhibition at 10 µM (TNF-α) [%]
39 | COC1CCN(c2nc(-c3nccn3C)nc3sc(-c4cccc(O)c4F)c(-c4ccccc4)c23)C1 (stereo not drawn) [drawing 755] |  |  | 26 to 50 | 1 to 25
40 | COc1cccc(-c2sc3nc(-c4nccn4C)nc(N[C@H]4C[C@@H](OC)C4)c3c2-c2ccccc2)c1F [drawing 756] |  |  | 76 to 100 | 51 to 75
41 | CO[C@H]1C[C@@H](Nc2nc(-c3nccn3C)nc3sc(-c4cnn(C)c4)c(-c4ccccc4)c23)C1 [drawing 757] |  |  | 51 to 75 | 1 to 25
42 | COc1cccc(-c2sc3nc(-c4nccn4C)nc(NC4CCC(OC)C4)c3c2C)c1F (stereo not drawn) [drawing 758] |  |  | 1 to 25 | 0
43 | COc1cccc(-c2sc3nc(-c4nccn4C)nc(N[C@@H]4CC[C@H](OC)C4)c3c2C)c1F [drawing 759] |  |  | 1 to 25 | 1 to 25
44 | COC1CCC(Nc2nc(-c3nccn3C)nc3sc(-c4cccc5[nH]ncc45)c(C)c23)C1 (stereo not drawn) [drawing 760] |  |  | 51 to 75 | 1 to 25
45 | COc1cccc(-c2sc3nc(-c4nc(C)cn4C)nc(N[C@@H]4CC[C@H](OC)C4)c3c2C)c1F [drawing 761] |  |  | 1 to 25 | 0
46 | CO[C@H]1CC[C@@H](Nc2nc(-c3nc(C)cn3C)nc3sc(-c4cccc5[nH]ncc45)c(C)c23)C1 [drawing 762] |  |  | 76 to 100 | 26 to 50
47 | COCCn1ccnc1-c1nc(O)c2scc(-c3ccc(OCC(C)C)nc3)c2n1 [drawing 763] |  |  | 26 to 50 | 1 to 25
48 | CC(C)COc1ccc(-c2csc3c(O)nc(-c4nccn4Cc4ccccn4)nc23)cn1 [drawing 764] |  |  | 76 to 100 | 1 to 25
49 | COc1cccc(Cn2ccnc2-c2nc(O)c3scc(-c4ccc(OCC(C)C)nc4)c3n2)c1 [drawing 765] |  |  | 76 to 100 | 1 to 25
50 | CO[C@H]1CC[C@@H](Nc2nc(-c3nccn3C)nc(C(=O)N3CCc4c(O)cccc4C3)c2C)C1 [drawing 766] |  |  | 0 | 1 to 25
51 | CO[C@H]1C[C@@H](Nc2nc(-c3ccccn3)nc3sccc23)C1 [drawing 767] |  |  | 1 to 25 | 1 to 25
52 | CO[C@H]1C[C@@H](Nc2nc(-c3nccn3C)nc3sccc23)C1 [drawing 768] |  |  | 26 to 50 | 1 to 25
53 | Cn1ccc(-c2sc3nc(-c4nccn4C)nc(O)c3c2-c2ccccc2)n1 [drawing 769] |  |  | 51 to 75 | 1 to 25
54 | CO[C@H]1C[C@@H](Nc2nc(-c3nccn3C)nc3sc(-c4ccn(C)n4)c(-c4ccccc4)c23)C1 [drawing 770] |  |  | 76 to 100 | 76 to 100
55 | CO[C@H]1C[C@H](Nc2nc(-c3nccn3C)nc3sc(-c4ccn(C)n4)c(-c4ccccc4)c23)C1 [drawing 771] |  |  | 76 to 100 | 76 to 100
56 | CN(C)CCOCCNc1nc(-c2nccn2C)nc2sc(-c3ccn(C)n3)c(-c3ccccc3)c12 [drawing 772] |  |  | 76 to 100 | 26 to 50
57 | Cn1ccc(-c2sc3nc(-c4nccn4C)nc(N[C@H]4C[C@@H](O)C4)c3c2-c2ccccc2)n1 [drawing 773] |  |  | 26 to 50 | 0
